{"source": "paper PMC11420776", "about": "(RSC Advances, 2024)", "key": {"[1]": {"test_system": "NCI-H23 (NSC lung cancer)", "test": "NCI 60-cell one-dose antiproliferative screen", "type": "cell-based, human", "details": "one dose 10 μM"}, "COLO-205 (colon cancer)": {"test_system": "COLO-205 (colon cancer)", "test": "NCI 60-cell one-dose antiproliferative screen", "type": "cell-based, human", "details": "one dose 10 μM"}, "HCT-116 (colon cancer)": {"test_system": "HCT-116 (colon cancer)", "test": "NCI 60-cell one-dose antiproliferative screen", "type": "cell-based, human", "details": "one dose 10 μM"}, "MALME-3M (melanoma)": {"test_system": "MALME-3M (melanoma)", "test": "NCI 60-cell one-dose antiproliferative screen", "type": "cell-based, human", "details": "one dose 10 μM"}, "MDA-MB-435 (melanoma)": {"test_system": "MDA-MB-435 (melanoma)", "test": "NCI 60-cell one-dose antiproliferative screen", "type": "cell-based, human", "details": "one dose 10 μM"}, "SK-MEL-28 (melanoma)": {"test_system": "SK-MEL-28 (melanoma)", "test": "NCI 60-cell one-dose antiproliferative screen", "type": "cell-based, human", "details": "one dose 10 μM"}, "UACC-62 (melanoma)": {"test_system": "UACC-62 (melanoma)", "test": "NCI 60-cell one-dose antiproliferative screen", "type": "cell-based, human", "details": "one dose 10 μM"}, "OVCAR-3 (ovarian cancer)": {"test_system": "OVCAR-3 (ovarian cancer)", "test": "NCI 60-cell one-dose antiproliferative screen", "type": "cell-based, human", "details": "one dose 10 μM"}, "CAKI-1 (renal cancer)": {"test_system": "CAKI-1 (renal cancer)", "test": "NCI 60-cell one-dose antiproliferative screen", "type": "cell-based, human", "details": "one dose 10 μM"}, "SN12C (renal cancer)": {"test_system": "SN12C (renal cancer)", "test": "NCI 60-cell one-dose antiproliferative screen", "type": "cell-based, human", "details": "one dose 10 μM"}, "MCF7 (breast cancer)": {"test_system": "MCF7 (breast cancer)", "test": "NCI 60-cell one-dose antiproliferative screen", "type": "cell-based, human", "details": "one dose 10 μM"}, "[2]": {"test_system": "MDA-MB-231/ATCC (breast cancer)", "test": "NCI 60-cell one-dose antiproliferative screen", "type": "cell-based, human", "details": "one dose 10 μM"}, "[3]": {"test_system": "MDA-MB-468 (breast cancer)", "test": "NCI 60-cell one-dose antiproliferative screen", "type": "cell-based, human", "details": "one dose 10 μM"}, "c-Met kinase": {"molecular_target": "c-Met kinase (Homo sapiens, UniProt P08581)", "sequence (P08581 25-1390)": "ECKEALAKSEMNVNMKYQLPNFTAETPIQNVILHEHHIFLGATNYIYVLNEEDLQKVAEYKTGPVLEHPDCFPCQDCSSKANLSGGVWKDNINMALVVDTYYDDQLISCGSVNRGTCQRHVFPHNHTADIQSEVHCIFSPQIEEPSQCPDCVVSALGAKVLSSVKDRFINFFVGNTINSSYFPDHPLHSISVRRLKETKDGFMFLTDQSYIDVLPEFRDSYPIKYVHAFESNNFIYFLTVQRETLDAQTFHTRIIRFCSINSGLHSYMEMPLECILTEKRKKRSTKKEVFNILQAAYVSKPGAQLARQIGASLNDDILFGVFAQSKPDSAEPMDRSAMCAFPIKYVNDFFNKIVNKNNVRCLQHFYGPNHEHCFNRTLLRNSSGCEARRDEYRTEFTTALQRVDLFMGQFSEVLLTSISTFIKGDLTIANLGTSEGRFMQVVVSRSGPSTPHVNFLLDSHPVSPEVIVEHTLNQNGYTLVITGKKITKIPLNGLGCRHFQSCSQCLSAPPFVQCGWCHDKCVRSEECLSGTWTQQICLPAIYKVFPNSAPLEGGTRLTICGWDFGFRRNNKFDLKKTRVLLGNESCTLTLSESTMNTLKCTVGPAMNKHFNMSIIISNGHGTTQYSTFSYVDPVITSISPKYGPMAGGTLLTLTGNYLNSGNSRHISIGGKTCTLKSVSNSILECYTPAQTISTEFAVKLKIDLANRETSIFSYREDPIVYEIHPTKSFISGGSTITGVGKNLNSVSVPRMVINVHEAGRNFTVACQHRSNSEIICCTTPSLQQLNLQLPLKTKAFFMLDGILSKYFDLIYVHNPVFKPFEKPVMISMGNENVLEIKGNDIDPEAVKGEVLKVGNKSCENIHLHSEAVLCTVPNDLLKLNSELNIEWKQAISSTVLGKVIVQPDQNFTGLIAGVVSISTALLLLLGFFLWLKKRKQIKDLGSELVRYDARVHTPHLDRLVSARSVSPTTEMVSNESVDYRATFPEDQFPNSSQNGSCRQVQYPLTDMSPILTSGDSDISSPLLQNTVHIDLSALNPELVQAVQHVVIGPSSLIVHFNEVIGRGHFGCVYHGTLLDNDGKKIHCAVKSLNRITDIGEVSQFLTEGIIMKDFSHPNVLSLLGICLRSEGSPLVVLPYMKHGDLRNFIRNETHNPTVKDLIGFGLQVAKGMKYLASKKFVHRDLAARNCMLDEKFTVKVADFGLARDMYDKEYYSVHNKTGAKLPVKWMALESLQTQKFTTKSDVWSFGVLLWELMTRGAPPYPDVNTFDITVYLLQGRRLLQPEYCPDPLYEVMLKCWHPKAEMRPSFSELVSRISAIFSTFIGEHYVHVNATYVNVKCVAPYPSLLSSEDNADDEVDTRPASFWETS", "test": "c-Met kinase inhibition assay", "type": "biochemical"}, "Pim-1 kinase": {"molecular_target": "Pim-1 kinase (Homo sapiens, UniProt P11309)", "sequence (P11309 whole entry)": "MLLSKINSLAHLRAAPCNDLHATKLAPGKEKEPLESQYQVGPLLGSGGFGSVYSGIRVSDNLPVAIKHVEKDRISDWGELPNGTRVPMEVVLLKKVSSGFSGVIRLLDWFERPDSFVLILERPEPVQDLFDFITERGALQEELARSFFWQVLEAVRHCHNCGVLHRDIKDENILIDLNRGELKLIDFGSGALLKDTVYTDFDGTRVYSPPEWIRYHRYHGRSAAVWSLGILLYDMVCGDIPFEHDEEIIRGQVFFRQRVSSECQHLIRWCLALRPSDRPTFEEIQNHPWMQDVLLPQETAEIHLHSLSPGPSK", "test": "Pim-1 kinase inhibition assay", "type": "biochemical"}}, "data": [{"smiles": "COc1ccc(-c2nnc3ccc(NN=Cc4ccc(O)cc4)nn23)cc1", "note": "[Compound 4g, 4-((2-(3-(4-Methoxyphenyl)-[1,2,4]triazolo[4,3-b]pyridazin-6-yl)hydrazono)methyl)phenol]", "values": [{"measurement": "GI%", "setting": "[1]", "result": 67.47, "unit": "%"}, {"measurement": "GI%", "setting": "COLO-205 (colon cancer)", "result": 43.51, "unit": "%"}, {"measurement": "GI%", "setting": "HCT-116 (colon cancer)", "result": 72.71, "unit": "%"}, {"measurement": "GI%", "setting": "MALME-3M (melanoma)", "result": 35.83, "unit": "%"}, {"measurement": "GI%", "setting": "MDA-MB-435 (melanoma)", "result": 54.20, "unit": "%"}, {"measurement": "GI%", "setting": "SK-MEL-28 (melanoma)", "result": 30.86, "unit": "%"}, {"measurement": "GI%", "setting": "UACC-62 (melanoma)", "result": 41.19, "unit": "%"}, {"measurement": "GI%", "setting": "OVCAR-3 (ovarian cancer)", "result": 62.40, "unit": "%"}, {"measurement": "GI%", "setting": "CAKI-1 (renal cancer)", "result": 78.54, "unit": "%"}, {"measurement": "GI%", "setting": "SN12C (renal cancer)", "result": 57.71, "unit": "%"}, {"measurement": "GI%", "setting": "MCF7 (breast cancer)", "result": 86.77, "unit": "%"}, {"measurement": "GI%", "setting": "[2]", "result": 39.44, "unit": "%"}, {"measurement": "GI%", "setting": "[3]", "result": 51.76, "unit": "%"}, {"measurement": "IC50", "setting": "c-Met kinase", "result": "163 ± 10", "unit": "nM"}, {"measurement": "IC50", "setting": "Pim-1 kinase", "result": "283 ± 10", "unit": "nM"}]}]}
